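48-hour exposure; five concentrations; linearly interpolated endpoints. At the GI50, growth is halved.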 Active and inactive are the calls of the source. Rule as the data show it: active = GI50 up to about 1.1 µM and inactive = higher.
Tests used:
Test in all cases: growth of human tumour cells (NCI), 48 h
MOLT-4 = system: MOLT-4
OVCAR-3 = system: OVCAR-3
NCI-H522 = system: NCI-H522
SK-MEL-5 = system: SK-MEL-5
MDA-MB-231 = system: MDA-MB-231
SW-620 = system: SW-620
Malme-3M = system: Malme-3M
A498 = system: A498
HOP-62 = system: HOP-62
HT-29 = system: HT-29
LOX IMVI = system: LOX IMVI
RPMI-8226 = system: RPMI-8226
SN12C = system: SN12C
MDA-MB-435 = system: MDA-MB-435
OVCAR-5 = system: OVCAR-5
SR = system: SR
SF-295 = system: SF-295
PC-3 = system: PC-3
NCI-H226 = system: NCI-H226
SK-MEL-28 = system: SK-MEL-28
SF-539 = system: SF-539
K562 = system: K562
OVCAR-4 = system: OVCAR-4
ACHN = system: ACHN
KM12 = system: KM12
T47D = system: T47D
SNB-19 = system: SNB-19
CAKI-1 = system: CAKI-1
M14 = system: M14
HCT-15 = system: HCT-15
MCF7 = system: MCF7
HCT-116 = system: HCT-116
SK-MEL-2 = system: SK-MEL-2
DU-145 = system: DU-145
U-251 = system: U-251
TK-10 = system: TK-10
Hs-578T = system: Hs-578T
MDA-N = system: MDA-N
BT-549 = system: BT-549
OVCAR-8 = system: OVCAR-8
RXF 393 = system: RXF 393
UACC-257 = system: UACC-257
NCI-H460 = system: NCI-H460
IGROV-1 = system: IGROV-1
A549 = system: A549
786-0 = system: 786-0
SNB-75 = system: SNB-75
COLO 205 = system: COLO 205
SK-OV-3 = system: SK-OV-3
NCI/ADR-RES = system: NCI/ADR-RES
EKVX = system: EKVX
NCI-H23 = system: NCI-H23
UO-31 = system: UO-31
CCRF-CEM = system: CCRF-CEM
UACC-62 = system: UACC-62
HL-60 = system: HL-60
SF-268 = system: SF-268
HCC 2998 = system: HCC 2998
HOP-92 = system: HOP-92

## CCN(CC)C(=S)SC(C(=O)Nc1nnc(-c2ccccc2)o1)c1ccccc1 (centres undefined)
MOLT-4
  GI50: 2.88 µM (inactive)
OVCAR-3
  GI50: 15.2 µM (inactive)
NCI-H522
  GI50: 17.8 µM (inactive)
SK-MEL-5
  GI50: 14.6 µM (inactive)
MDA-MB-231
  GI50: 34.1 µM (inactive)
SW-620
  GI50: 28.7 µM (inactive)
Malme-3M
  GI50: 20.4 µM (inactive)
A498
  GI50: 18.2 µM (inactive)
HOP-62
  GI50: 20.9 µM (inactive)
HT-29
  GI50: 17.9 µM (inactive)
LOX IMVI
  GI50: 4.23 µM (inactive)
RPMI-8226
  GI50: 24.4 µM (inactive)
SN12C
  GI50: 10.3 µM (inactive)
MDA-MB-435
  GI50: 17.1 µM (inactive)
OVCAR-5
  GI50: 23.1 µM (inactive)
SR
  GI50: 5.52 µM (inactive)
SF-295
  GI50: 15.6 µM (inactive)
PC-3
  GI50: 19.3 µM (inactive)
NCI-H226
  GI50: 24.7 µM (inactive)
SK-MEL-28
  GI50: 17.9 µM (inactive)
SF-539
  GI50: 25.8 µM (inactive)
K562
  GI50: 15.7 µM (inactive)
OVCAR-4
  GI50: 25.9 µM (inactive)
ACHN
  GI50: 17.4 µM (inactive)
KM12
  GI50: 20.2 µM (inactive)
T47D
  GI50: 23.7 µM (inactive)
SNB-19
  GI50: 29.8 µM (inactive)
CAKI-1
  GI50: 19.4 µM (inactive)
M14
  GI50: 16.1 µM (inactive)
HCT-15
  GI50: 5.24 µM
MCF7
  GI50: 18.5 µM (inactive)
HCT-116
  GI50: 16 µM (inactive)
SK-MEL-2
  GI50: 18.1 µM (inactive)
DU-145
  GI50: 17.9 µM (inactive)
U-251
  GI50: 16.1 µM (inactive)
TK-10
  GI50: 44.5 µM (inactive)
Hs-578T
  GI50: 40.3 µM (inactive)
MDA-N
  GI50: 16.6 µM (inactive)
BT-549
  GI50: 13.1 µM (inactive)
OVCAR-8
  GI50: 28.8 µM (inactive)
RXF 393
  GI50: 16.2 µM (inactive)
UACC-257
  GI50: 22.9 µM (inactive)
NCI-H460
  GI50: 9.1 µM (inactive)
IGROV-1
  GI50: 15.3 µM (inactive)
A549
  GI50: 15.3 µM (inactive)
786-0
  GI50: 15.8 µM (inactive)
SNB-75
  GI50: 31.9 µM (inactive)
COLO 205
  GI50: 30.3 µM (inactive)
SK-OV-3
  GI50: 32.4 µM (inactive)
NCI/ADR-RES
  GI50: 4.24 µM (inactive)
EKVX
  GI50: 18.4 µM (inactive)
NCI-H23
  GI50: 15.4 µM (inactive)
UO-31
  GI50: 10.1 µM (inactive)

## Cn1c(NN)nc(-c2ccc([N+](=O)[O-])cc2)c(C#N)c1=O
OVCAR-3
  GI50: 17.1 µM (inactive)
NCI-H522
  GI50: 16.4 µM (inactive)
SK-MEL-5
  GI50: 4.25 µM (inactive)
MDA-MB-231
  GI50: 12.7 µM (inactive)
SW-620
  GI50: 12.7 µM (inactive)
Malme-3M
  GI50: 16.1 µM (inactive)
CCRF-CEM
  GI50: 25.4 µM (inactive)
HOP-62
  GI50: 14.1 µM (inactive)
UACC-62
  GI50: 15.6 µM (inactive)
HT-29
  GI50: 12.8 µM (inactive)
LOX IMVI
  GI50: 17.1 µM (inactive)
RPMI-8226
  GI50: 29.1 µM (inactive)
HL-60
  GI50: 30.8 µM (inactive)
SN12C
  GI50: 15.6 µM (inactive)
MDA-MB-435
  GI50: 17.9 µM (inactive)
OVCAR-5
  GI50: 20.8 µM (inactive)
SR
  GI50: 18.7 µM (inactive)
SF-295
  GI50: 16.1 µM (inactive)
PC-3
  GI50: 15.3 µM (inactive)
NCI-H226
  GI50: 11 µM (inactive)
SK-MEL-28
  GI50: 12.5 µM (inactive)
K562
  GI50: 38.2 µM (inactive)
OVCAR-4
  GI50: 15.6 µM (inactive)
ACHN
  GI50: 12.2 µM (inactive)
KM12
  GI50: 16.3 µM (inactive)
T47D
  GI50: 15.8 µM (inactive)
SNB-19
  GI50: 13.5 µM (inactive)
CAKI-1
  GI50: 26.2 µM (inactive)
M14
  GI50: 12.5 µM (inactive)
HCT-15
  GI50: 16.4 µM
MCF7
  GI50: 16.6 µM (inactive)
HCT-116
  GI50: 12.8 µM (inactive)
SF-268
  GI50: 16 µM (inactive)
SK-MEL-2
  GI50: 22.2 µM (inactive)
DU-145
  GI50: 16.4 µM (inactive)
U-251
  GI50: 17.1 µM (inactive)
TK-10
  GI50: 14.3 µM (inactive)
Hs-578T
  GI50: 14.5 µM (inactive)
MDA-N
  GI50: 12.4 µM (inactive)
BT-549
  GI50: 12.7 µM (inactive)
OVCAR-8
  GI50: 19.2 µM (inactive)
HCC 2998
  GI50: 13.7 µM (inactive)
RXF 393
  GI50: 14.9 µM (inactive)
UACC-257
  GI50: 15.7 µM (inactive)
NCI-H460
  GI50: 17.3 µM (inactive)
IGROV-1
  GI50: 18.5 µM (inactive)
A549
  GI50: 19.8 µM (inactive)
786-0
  GI50: 14.2 µM (inactive)
SNB-75
  GI50: 20.4 µM (inactive)
COLO 205
  GI50: 20 µM (inactive)
SK-OV-3
  GI50: 14.9 µM (inactive)
NCI/ADR-RES
  GI50: 31 µM (inactive)
EKVX
  GI50: 15.8 µM (inactive)
NCI-H23
  GI50: 13.4 µM (inactive)
UO-31
  GI50: 16.3 µM (inactive)

## COC(=O)[C@]1(Cc2ccc3ccccc3c2)CCCCCCN1C(=O)c1ccccc1
MOLT-4
  GI50: > 21.3 µM (inactive)
OVCAR-3
  GI50: > 24.9 µM (inactive)
SK-MEL-5
  GI50: > 100 µM (inactive)
MDA-MB-231
  GI50: > 36.4 µM (inactive)
SW-620
  GI50: > 40.8 µM (inactive)
Malme-3M
  GI50: > 38.5 µM (inactive)
CCRF-CEM
  GI50: > 23.9 µM (inactive)
A498
  GI50: > 36.1 µM (inactive)
HOP-62
  GI50: > 30.1 µM (inactive)
UACC-62
  GI50: > 35.6 µM (inactive)
HT-29
  GI50: > 28.2 µM (inactive)
LOX IMVI
  GI50: 16.7 µM (inactive)
RPMI-8226
  GI50: 4.15 µM (inactive)
SN12C
  GI50: > 37 µM (inactive)
MDA-MB-435
  GI50: > 37.2 µM (inactive)
OVCAR-5
  GI50: > 38 µM (inactive)
SR
  GI50: > 100 µM (inactive)
SF-295
  GI50: > 23.4 µM (inactive)
PC-3
  GI50: > 22.4 µM (inactive)
NCI-H226
  GI50: > 37.9 µM (inactive)
SK-MEL-28
  GI50: > 37.2 µM (inactive)
SF-539
  GI50: > 39.6 µM (inactive)
K562
  GI50: > 22 µM (inactive)
OVCAR-4
  GI50: 12.7 µM (inactive)
ACHN
  GI50: > 34.4 µM (inactive)
KM12
  GI50: > 34.1 µM (inactive)
T47D
  GI50: > 30.3 µM (inactive)
SNB-19
  GI50: > 44.6 µM (inactive)
M14
  GI50: > 36.1 µM (inactive)
HCT-15
  GI50: > 31.8 µM
MCF7
  GI50: > 32.2 µM (inactive)
HCT-116
  GI50: > 25.4 µM (inactive)
SF-268
  GI50: > 33.8 µM (inactive)
SK-MEL-2
  GI50: 12.6 µM (inactive)
DU-145
  GI50: > 43.6 µM (inactive)
U-251
  GI50: > 26.7 µM (inactive)
TK-10
  GI50: > 36.6 µM (inactive)
Hs-578T
  GI50: 18.7 µM (inactive)
MDA-N
  GI50: > 38 µM (inactive)
HOP-92
  GI50: > 38.5 µM (inactive)
BT-549
  GI50: > 39.5 µM (inactive)
OVCAR-8
  GI50: > 33.3 µM (inactive)
HCC 2998
  GI50: > 34 µM (inactive)
RXF 393
  GI50: > 32.2 µM (inactive)
UACC-257
  GI50: 12.5 µM (inactive)
NCI-H460
  GI50: > 34.4 µM (inactive)
IGROV-1
  GI50: > 37.8 µM (inactive)
A549
  GI50: > 100 µM (inactive)
786-0
  GI50: > 37 µM (inactive)
SNB-75
  GI50: 17.5 µM (inactive)
COLO 205
  GI50: 11.4 µM (inactive)
SK-OV-3
  GI50: > 49.1 µM (inactive)
NCI/ADR-RES
  GI50: > 34 µM (inactive)
EKVX
  GI50: > 27.7 µM (inactive)
NCI-H23
  GI50: > 29.3 µM (inactive)
UO-31
  GI50: > 21 µM (inactive)
